# In publication PMC8847695 (Frontiers in Chemistry, 2022):
# Entries after “also recorded” stand apart in the source; their conditions may differ.
# Tests used:
# [1] = biological target: T1, CAMK1G (1-320) (Homo sapiens, UniProt Q96NX5); experiment: STD-NMR fragment screening, CAMK1G; format: binding; conditions: 1 mM fragment, 20 µM protein; hit if peak in difference spectrum three times higher than local noise
# T1 construct: made in house; host or cells: E. coli BL21 (DE3) pLysS
# How it was run: (§1)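 Saturation-transfer difference NMR was run at 25°C and 700 MHz with 20 µM protein, two fragments at 1 mM each, and 10% DMSO-d6. On-resonance saturation was at 0.5–0.6 ppm and off-resonance at 40 ppm, with a 3 s Gaussian-pulse train. A hit required a difference-spectrum peak at least three times the local noise.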
# [2] = biological target: T2, DOT1L (Homo sapiens, UniProt Q8TEK3); experiment: ITC validation, DOT1L; format: binding; conditions: 25°C, detection level >1 mM
# T2 construct: made in house; host or cells: E. coli BL21 (DE3) pLysS
# T2 sequence (Q8TEK3 1-416): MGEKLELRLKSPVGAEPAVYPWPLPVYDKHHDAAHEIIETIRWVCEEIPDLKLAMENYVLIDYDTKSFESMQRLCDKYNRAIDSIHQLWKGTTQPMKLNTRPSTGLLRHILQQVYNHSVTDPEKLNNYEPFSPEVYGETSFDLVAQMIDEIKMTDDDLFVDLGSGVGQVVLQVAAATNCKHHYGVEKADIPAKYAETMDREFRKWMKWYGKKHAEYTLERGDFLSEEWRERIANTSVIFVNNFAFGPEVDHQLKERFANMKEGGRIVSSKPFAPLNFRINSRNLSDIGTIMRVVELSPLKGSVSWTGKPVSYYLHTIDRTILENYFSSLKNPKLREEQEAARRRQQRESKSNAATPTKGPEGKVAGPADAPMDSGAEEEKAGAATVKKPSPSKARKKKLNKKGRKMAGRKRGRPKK
# Procedure: (§2) The protein was buffer exchanged into 50 mM HEPES, 100 mM NaCl, 2 mM MgCl2, and 1 mM TCEP at pH 7.4. The protein was concentrated to 50–100 µM, and DMSO was added to a final concentration of 5% (^V/V). The fragments were dissolved in DMSO to yield a 100 mM stock solution, which was further diluted with buffer to yield a 5 mM solution also containing 5% (^V/V) DMSO. A MicroCal iTC200 (Malvern) instrument was used with the measuring cell set to 25°C, while the cooling jacket was set to 15°C. After a 120 s initial delay following temperature equilibration, a first injection with 0.5 µl over 2 s was done. […] The measurement was conducted using a needle stirring speed of 1,000 rpm and a reference heat rate of 10 μcal/s. Experiments were aborted, when the measuring cell was unable to reach a heat rate greater than 9 μcal/s during equilibration. Affinities were averaged from duplicates.
# [3] = biological target: T3, IDO1 (1-435) (Homo sapiens, UniProt P14902); experiment: STD-NMR fragment screening, IDO1; format: binding; conditions: 1 mM fragment, 20 µM protein; hit if peak in difference spectrum three times higher than local noise
# T3 construct: His-tag of pET15b with TEV site (thrombin site replaced) (cleaved yes); made in house; host or cells: E. coli Rosetta 2 (DE3) pLysS
# T3 sequence (P14902 whole entry, the tested form may be a part): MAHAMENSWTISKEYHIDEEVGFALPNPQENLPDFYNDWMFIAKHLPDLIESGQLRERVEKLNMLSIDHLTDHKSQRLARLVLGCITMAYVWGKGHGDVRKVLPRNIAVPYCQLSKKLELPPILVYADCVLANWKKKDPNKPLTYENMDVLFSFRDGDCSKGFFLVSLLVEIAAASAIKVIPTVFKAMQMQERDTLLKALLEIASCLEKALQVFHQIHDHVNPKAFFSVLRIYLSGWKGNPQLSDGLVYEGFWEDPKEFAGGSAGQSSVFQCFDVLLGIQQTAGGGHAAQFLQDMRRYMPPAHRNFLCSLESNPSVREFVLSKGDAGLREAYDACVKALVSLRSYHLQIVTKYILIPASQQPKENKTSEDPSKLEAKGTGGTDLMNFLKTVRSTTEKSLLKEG
# How it was run: as §1
# [4] = biological target: T4, DOT1L (1-416) (Homo sapiens, UniProt Q8TEK3); experiment: STD-NMR fragment screening, DOT1L; format: binding; conditions: 1 mM fragment, 20 µM protein; hit if peak in difference spectrum three times higher than local noise
# T4 construct: made in house; host or cells: E. coli BL21 (DE3) pLysS
# T4 sequence (Q8TEK3 1-416): as the sequence (Q8TEK3 1-416) above
# How it was run: as §1
# [5] = biological target: T5, CAMK1G (Homo sapiens, UniProt Q96NX5); experiment: ITC validation, CAMK1G; format: binding; conditions: for Kd: ITC, 25°C, 5% DMSO, pH 7.4, duplicates, 7405: fragment concentration reduced to 2 mM
# T5 construct: made in house; host or cells: E. coli BL21 (DE3) pLysS
# T5 sequence (Q96NX5 1-320): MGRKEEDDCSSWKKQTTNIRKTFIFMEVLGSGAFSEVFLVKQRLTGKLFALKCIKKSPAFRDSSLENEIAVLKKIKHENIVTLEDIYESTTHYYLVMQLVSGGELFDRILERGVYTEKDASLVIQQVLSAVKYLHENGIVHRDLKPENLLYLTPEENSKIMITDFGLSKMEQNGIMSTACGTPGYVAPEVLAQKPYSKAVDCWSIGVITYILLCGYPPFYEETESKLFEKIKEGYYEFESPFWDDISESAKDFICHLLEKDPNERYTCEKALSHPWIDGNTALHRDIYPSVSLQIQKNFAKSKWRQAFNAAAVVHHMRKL
# Procedure: as §2
# [6] = biological target: T6, IDO1 (Homo sapiens, UniProt P14902); experiment: ITC validation, IDO1; format: binding
# T6 construct: His-tag of pET15b with TEV site (thrombin site replaced) (cleaved yes); made in house; host or cells: E. coli Rosetta 2 (DE3) pLysS
# T6 sequence (P14902 whole entry): as the sequence (P14902 whole entry, the tested form may be a part) above
# Procedure: (§3) The protein was buffer exchanged into 50 mM HEPES, 100 mM NaCl, 2 mM MgCl2, and 1 mM TCEP at pH 7.4. The protein was concentrated to 50–100 µM, and DMSO was added to a final concentration of 5% (^V/V). The fragments were dissolved in DMSO to yield a 100 mM stock solution, which was further diluted with buffer to yield a 5 mM solution also containing 5% (^V/V) DMSO. A MicroCal iTC200 (Malvern) instrument was used with the measuring cell set to 25°C, while the cooling jacket was set to 15°C. After a 120 s initial delay following temperature equilibration, a first injection with 0.5 µl over 2 s was done. Nineteen injections with 2 µl over 4 s were performed every 180 s ([Ruhmann et al., 2015]). The measurement was conducted using a needle stirring speed of 1,000 rpm and a reference heat rate of 10 μcal/s. Experiments were aborted, when the measuring cell was unable to reach a heat rate greater than 9 μcal/s during equilibration. Affinities were averaged from duplicates.
# [7] = biological target: AAK1 (Homo sapiens, UniProt Q2M2I8); experiment: ITC validation, AAK1; format: binding; conditions: for Kd / KD: ITC; for LE: LE=1/N⋅1.4⋅−log(KD); for LE / LELP: AAK1; for LELP: LELP= logP/LE
# Chain of AAK1 (Q2M2I8 46-315 limits assumed): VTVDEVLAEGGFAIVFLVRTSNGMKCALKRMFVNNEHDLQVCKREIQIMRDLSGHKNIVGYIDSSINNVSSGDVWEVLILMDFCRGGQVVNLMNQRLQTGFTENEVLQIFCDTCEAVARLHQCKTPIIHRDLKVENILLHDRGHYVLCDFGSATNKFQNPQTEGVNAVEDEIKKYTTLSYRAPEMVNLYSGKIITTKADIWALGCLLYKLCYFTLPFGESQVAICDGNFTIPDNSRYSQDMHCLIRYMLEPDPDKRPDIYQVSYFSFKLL
# Procedure: as §2
# [8] = biological target: AAK1 (121-471) (Homo sapiens, UniProt Q2M2I8); experiment: STD-NMR fragment screening, AAK1; format: binding; conditions: 1 mM fragment, 20 µM protein; hit if peak in difference spectrum three times higher than local noise
# Chain of AAK1 (121-471) (Q2M2I8 46-315 limits assumed): as above
# How it was run: as §1
# [9] = GSH stability assay (HPLC); format: physicochemical; conditions: t1/2 > 20 h defined as sufficiently stable
# Procedure: A 500 µM fragment solution in PBS buffer pH 7.4, 10% acetonitrile and 200 µM indoprofen as an internal standard, was added to 10 mM GSH solution in a 1:2 ratio. The reaction temperature was 40°C. […] The reaction of fragments with GSH was determined by measuring the decreasing area under the curve (AUC) of the compound relative to the internal standard indoprofen. The gradient was chosen depending on the polarity of fragments to be either one of the following: […]
# [10] = biological target: JNK2 (Homo sapiens, UniProt P45984); experiment: ITC, JNK2; format: binding
# Chain of JNK2 (P45984 whole entry, species assumed): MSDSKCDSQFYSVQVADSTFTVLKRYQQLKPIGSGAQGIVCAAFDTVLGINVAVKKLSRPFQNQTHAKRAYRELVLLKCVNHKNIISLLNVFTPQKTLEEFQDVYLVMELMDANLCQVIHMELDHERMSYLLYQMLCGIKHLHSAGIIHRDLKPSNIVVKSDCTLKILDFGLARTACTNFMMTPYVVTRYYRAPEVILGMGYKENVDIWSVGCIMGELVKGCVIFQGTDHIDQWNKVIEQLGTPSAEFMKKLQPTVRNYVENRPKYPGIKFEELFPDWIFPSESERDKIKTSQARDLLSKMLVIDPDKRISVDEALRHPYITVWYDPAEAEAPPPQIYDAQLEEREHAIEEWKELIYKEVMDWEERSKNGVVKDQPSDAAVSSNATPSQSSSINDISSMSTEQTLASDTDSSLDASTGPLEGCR
# Procedure: as §3
# [11] = biological target: JNK3 (Homo sapiens, UniProt P53779); experiment: ITC, JNK3; format: binding
# Chain of JNK3 (P53779 whole entry, species assumed): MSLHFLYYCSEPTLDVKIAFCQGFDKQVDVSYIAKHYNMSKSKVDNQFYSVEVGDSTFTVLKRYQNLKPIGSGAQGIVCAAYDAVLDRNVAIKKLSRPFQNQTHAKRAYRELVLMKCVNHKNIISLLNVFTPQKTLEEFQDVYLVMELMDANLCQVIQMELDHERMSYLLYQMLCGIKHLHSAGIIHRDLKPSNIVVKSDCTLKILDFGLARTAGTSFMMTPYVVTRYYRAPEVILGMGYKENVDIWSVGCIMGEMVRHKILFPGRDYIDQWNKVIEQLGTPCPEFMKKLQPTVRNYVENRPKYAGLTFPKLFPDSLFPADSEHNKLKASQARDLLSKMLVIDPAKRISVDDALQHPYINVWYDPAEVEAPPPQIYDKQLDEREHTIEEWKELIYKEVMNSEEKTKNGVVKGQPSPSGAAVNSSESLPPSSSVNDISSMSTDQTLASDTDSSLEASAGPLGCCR
# Procedure: as §3
# [12] = ITC, 25°C, 5% DMSO, pH 7.4, duplicates
# [13] = 25°C, 5% DMSO, pH 7.4, duplicates
# T1 sequence (Q96NX5 1-320): as the sequence (Q96NX5 1-320) above
structure (smiles),measurement,setting,value
Brc1cnc2cnccn12 [Fragment 0120],STD-NMR hit,[1],fragment hits
same,ITC validation (KD),[2],None of these could be validated with ITC
Cc1n[nH]c(C)c1I [Fragment 0459],STD-NMR hit,[3],STD hit
same,STD-NMR hit,[1],STD hit
same,STD-NMR hit,[4],STD hit
same,Kd,[5],190 µM
same,KD,[6]; [12],too low to derive reliable affinity determination
same,Kd,[6]; [12],> 1000 µM
same,Kd,[7]; [13],18 µM
same,ITC validation (KD),[2],None of these could be validated with ITC; also recorded: beyond the limits of ITC
same,STD-NMR hit,[8],STD hit
Nc1c(Cl)ccc(O)c1Cl [Fragment 0471],Kd,[7]; [13],90 µM
same,LE,[7],0.57
same,LELP,[7],4.03
Oc1nc2nc(Cl)ccc2[nH]1 [Fragment 0474],Kd,[7]; [13],180 µM
same,LE,[7],0.48
same,LELP,[7],1.90
same,stability with GSH (in words),[9],sufficiently stable
Cn1c(=O)c2[nH]c(Cl)nc2n(C)c1=O [Fragment 1216],Kd,[6]; [12],390 µM
same,LE,"[6]; LE=1/N⋅1.4⋅−log(KD), IDO1",0.34
same,LELP,"[6]; LELP= logP/LE, IDO1",−1.92
same,stability with GSH (in words),[9],sufficiently stable
Nc1c(Cl)ccc2nonc12 [Fragment 1217],stability with GSH (in words),[9],sufficiently stable
Cc1c(Cl)cnc(N)c1Cl [Fragment 7405],Kd,[5],130 µM
same,ITC validation (KD),[2],None of these could be validated with ITC
Nc1ccc2[nH]cnc2c1Br [Fragment 7409],LE,"[5]; LE=1/N⋅1.4⋅−log(KD), CAMK1G",over 0.4
same,Kd,[7]; [13],6 µM
same,LE,[7],0.67
same,LELP,[7],2.86
same,stability with GSH (in words),[9],sufficiently stable
"Clc1ncnc2cc[nH]c12 [Fragment 9595, 4-chloro-5H-pyrrolo[3,2-d]pyrimidine]",Kd,[10],67 µM
same,Kd,[11],130 µM
same,Kd,[7]; [13],6 µM
same,stability with GSH (in words),[9],sufficiently stable
same,STD-NMR hit,[8],binds
Clc1ccnc2cc[nH]c12 [Fragment A1],Kd,[7]; [13],50 µM
Clc1nccc2cc[nH]c12 [Fragment A2],Kd,[7]; [13],60 µM
c1cc2cc[nH]c2cn1 [Fragment A3],KD,[7]; [13],completely abolished the affinity
same,Kd,[7]; SAR analogs of 9595,> 1000 µM
Clc1ncnc2ccoc12 [Fragment A4],Kd,[7]; [13],302 µM
Clc1ncnc2ccsc12 [Fragment A5],KD,[7]; [13],completely abolished the affinity
Clc1cccc2cc[nH]c12 [Fragment A6],Kd,[7]; [13],170 µM
